± gives the standard deviation of the averaged measurements.
Assay: TIMS collisional cross section (CCS, N2) of the lipid ion; higher = larger ion cross section
Conditions: ionization mode: positive, one isomer drawn

For `CC/C=C\C/C=C\C/C=C\C/C=C\C/C=C\C/C=C\CCC(=O)O[C@H](COC(=O)CCCCCCCCC/C=C\CCCCCC)COP(=O)([O-])OCC[N+](C)(C)C` [PC 18:1_22:6@] (ion (formula + adduct): [C48H82NO8P+H] 1+), the “TIMS collisional cross section” value (sample type: plasma) was 296.5 Å².
For `CCCC/C=C\CCCCCCCC(=O)OC[C@H](COP(=O)([O-])OCC[N+](C)(C)C)OC(=O)CCCCCCC/C=C\CCCCCC` [PC 14:1@_16:1] (ion (formula + adduct): [C38H72NO8P+H] 1+), the “TIMS collisional cross section” value (sample type: HeLa) was 272.4 Å².
With `CCCCC/C=C\C/C=C\CCCCCCCC(=O)OC[C@@H](COC(=O)CCCCCCCCCCC)OC(=O)CCCCCCCCCCCCC` [TG 12:0_14:0_18:2] (ion (formula + adduct): [C47H86O6+NH4] 1+) the “TIMS collisional cross section” value (sample type: Liver) was 295.4 Å² and the “TIMS collisional cross section” value (sample type: plasma) was 295.8 Å².
For `CCCCCCCCCCCCCC(=O)OC[C@@H](O)COP(=O)([O-])OCC[N+](C)(C)C` [LPC 14:0_0:0] (ion (formula + adduct): [C22H46NO7P+H] 1+), the “TIMS collisional cross section” value (sample type: HeLa) was 222.8 Å² and the “TIMS collisional cross section” value (sample type: plasma) was 222.55 ± 0.78 Å².
For `CCCCC/C=C\C/C=C\CCCCCCCC(=O)O[C@H](CO/C=C\CCCCCCCCCCCCCCCC)COP(=O)(O)OCCN` [PE P- 18:0@_18:2] (ion (formula + adduct): [C41H78NO7P+H] 1+), the “TIMS collisional cross section” value (sample type: Liver) was 278 Å².
In the case of `CCCCCCCCCCCCCCCCCCOC[C@@H](O)COP(=O)([O-])OCC[N+](C)(C)C` [LPC O- 18:0] (ion (formula + adduct): [C26H56NO6P+H] 1+), the “TIMS collisional cross section” value (sample type: HeLa) is reported as 238.4 Å² and the “TIMS collisional cross section” value (sample type: Liver) is reported as 238.2 Å².
With `CCCCC/C=C\C/C=C\CCCCCCCCCCCC(=O)OC[C@@H](COC(=O)CCCCCCC/C=C\CCCCCCCC)OC(=O)CCCCCCC/C=C\C/C=C\CCCCC` [TG 18:1_18:2_22:2] (ion (formula + adduct): [C61H108O6+NH4] 1+) the “TIMS collisional cross section” value (sample type: plasma) was 335.8 Å².
For `CCCCC/C=C\C=C\CCCCCCCCC(=O)O[C@H](COC(=O)CCCCCCCCCCCCCCC)COP(=O)([O-])OCC[N+](C)(C)C` [PC 16:0_18:2] (ion (formula + adduct): [C42H80NO8P+H] 1+), the “TIMS collisional cross section” value (sample type: Liver) was 286.3 Å² and the “TIMS collisional cross section” value (sample type: plasma) was 282.45 ± 2.8 Å².
In the case of `CCCCC/C=C\C/C=C\CCCCCCCC(=O)OC[C@H](COP(=O)([O-])OCC[N+](C)(C)C)OC(=O)CCCCCCCCCCCCCCCCCCCCCCC` [PC 18:2@_24:0] (ion (formula + adduct): [C50H96NO8P+H] 1+), the “TIMS collisional cross section” value (sample type: plasma) is reported as 310.1 Å².
In the case of `CC/C=C\C/C=C\C/C=C\C/C=C\C/C=C\C/C=C\CCC(=O)OC[C@@H](COC(=O)CCCCCCCCCCCCCCC)OC(=O)CCCCCCC/C=C\CCCCCC` [TG 16:0_16:1_22:6] (ion (formula + adduct): [C57H96O6+NH4] 1+), the “TIMS collisional cross section” value (sample type: HeLa) is reported as 321.4 Å².
In the case of `CCCCCCCCCCCCCCCC(=O)O[C@H](CO)COP(=O)([O-])OCC[N+](C)(C)C` [LPC 16:0] (ion (formula + adduct): [C24H50NO7P+H] 1+), the “TIMS collisional cross section” value (sample type: Liver) is reported as 229.9 Å² and the “TIMS collisional cross section” value (sample type: plasma) is reported as 231 Å².
For `CC/C=C\C/C=C\C/C=C\C/C=C\C/C=C\CCCC(=O)OC[C@@H](COC(=O)CCCCCCCCCCCCC)OC(=O)CCCCCCC/C=C\C/C=C\CCCCC` [TG 14:0_18:2_20:5] (ion (formula + adduct): [C55H92O6+NH4] 1+), the “TIMS collisional cross section” value (sample type: Liver) was 312.4 Å².
For `CCCCC/C=C\C/C=C\C/C=C\C/C=C\CCCC(=O)O[C@H](CO)COP(=O)([O-])OCC[N+](C)(C)C` [LPC 20:4] (ion (formula + adduct): [C28H50NO7P+H] 1+), the “TIMS collisional cross section” value (sample type: plasma) was 231.1 Å².
In the case of `CC/C=C\C/C=C\C/C=C\C/C=C\C/C=C\CCCCCC(=O)OC[C@@H](COC(=O)CCCCCCC/C=C\CCCCCCCC)OC(=O)CCCCCCCCC/C=C\CCCCCCCC` [TG 18:1_20:1_22:5] (ion (formula + adduct): [C63H108O6+NH4] 1+), the “TIMS collisional cross section” value (sample type: Liver) is reported as 337.9 Å².
For `CCCCCCCCCCCCCCCCCC(=O)OC[C@H](COP(=O)(O)OCCN)OC(=O)CCCCCCCCCCCCCCC` [PE 18:0@_16:0] (ion (formula + adduct): [C39H78NO8P+H] 1+), the “TIMS collisional cross section” value (sample type: HeLa) was 280.3 Å².
In the case of `CCCCC/C=C\C/C=C\C/C=C\CCCCCCC(=O)OC[C@@H](COC(=O)CCCCCCCCCCCCCCC)OC(=O)CCCCCCC/C=C\C/C=C\CCCCC` [TG 16:0_18:2_20:3] (ion (formula + adduct): [C57H100O6+NH4] 1+), the “TIMS collisional cross section” value (sample type: Liver) is reported as 322.3 Å².
For `CCCCCCCCCCC/C=C\CCCCC(=O)O[C@H](CO)COP(=O)([O-])OCC[N+](C)(C)C` [LPC 18:1] (ion (formula + adduct): [C26H52NO7P+H] 1+), the “TIMS collisional cross section” value (sample type: plasma) was 231.9 Å².
In the case of `CCCCCC/C=C/CCCCCCCCCC(=O)OC[C@H](CO)OC(=O)CCCCCCCCCCCCCCC` [DG 18:1_16:0_0:0] (ion (formula + adduct): [C37H70O5+NH4] 1+), the “TIMS collisional cross section” value (sample type: HeLa) is reported as 262.87 ± 0.64 Å², the “TIMS collisional cross section” value (sample type: Liver) is reported as 262.85 ± 0.21 Å² and the “TIMS collisional cross section” value (sample type: plasma) is reported as 263.1 Å².
With `CCCCC/C=C\C/C=C\C/C=C\C/C=C\CCCCCC(=O)O[C@H](COC(=O)CCCCCCCCCCCCCCC)COP(=O)([O-])OCC[N+](C)(C)C` [PC 16:0@_22:4] (ion (formula + adduct): [C46H84NO8P+H] 1+) the “TIMS collisional cross section” value (sample type: HeLa) was 294.9 Å².
In the case of `CCCCC/C=C\C/C=C\C/C=C\CCCCCCC(=O)O[C@H](CO/C=C\CCCCCCCCCCCCCCCCCC)COP(=O)(O)OCCN` [PE P- 20:0@_20:3] (ion (formula + adduct): [C45H84NO7P+H] 1+), the “TIMS collisional cross section” value (sample type: HeLa) is reported as 290.7 Å².
In the case of `CCCCC/C=C\C/C=C\CCCCCCCC(=O)O[C@@H](CO)COC(=O)CCCCCCCCCCCCCCC` [DG 16:0_18:2_0:0] (ion (formula + adduct): [C37H68O5+NH4] 1+), the “TIMS collisional cross section” value (sample type: Liver) is reported as 259.8 Å².
With `CCCCCCC/C=C\CCCCCCCC(=O)OC[C@@H](COC(=O)CCCCCCCCCCCCCC)OC(=O)CCCCCCCCCCCCCCC` [TG 15:0_16:0_17:1] (ion (formula + adduct): [C51H96O6+NH4] 1+) the “TIMS collisional cross section” value (sample type: Liver) was 311.4 Å².
In the case of `CCCCCCCCCCCCCCCCC(=O)O[C@@H](CO)COC(=O)CCCCCCCCCCCCCCC` [DG 16:0_17:0_0:0] (ion (formula + adduct): [C36H70O5+NH4] 1+), the “TIMS collisional cross section” value (sample type: HeLa) is reported as 262.1 ± 0.42 Å².
In the case of `CCCCCCCCCCCCCCCCCC(=O)OC[C@@H](O)COP(=O)(O)OC[C@H](N)C(=O)O` [LPS 18:0] (ion (formula + adduct): [C24H48NO9P+H] 1+), the “TIMS collisional cross section” value (sample type: HeLa) is reported as 229.2 Å² and the “TIMS collisional cross section” value (sample type: Liver) is reported as 229.2 Å².
In the case of `CC/C=C\C/C=C\C/C=C\C/C=C\C/C=C\C/C=C\CCC(=O)OC[C@@H](COC(=O)CCCCCCCCCCCCCCC)OC(=O)CCCCCCC/C=C\C/C=C\CCCCC` [TG 16:0_18:2_22:6] (ion (formula + adduct): [C59H98O6+NH4] 1+), the “TIMS collisional cross section” value (sample type: Liver) is reported as 325.3 Å².
In the case of `CCCCC/C=C\C/C=C\C/C=C\CCCCCCCCC(=O)OC[C@@H](COC(=O)CCCCCCCCCCCCCCC)OC(=O)CCCCCCCCCCCCCCCCCCC` [TG 16:0_20:0_22:3] (ion (formula + adduct): [C61H112O6+Na] 1+), the “TIMS collisional cross section” value (sample type: plasma) is reported as 333.9 Å².
With `CC/C=C\C/C=C\C/C=C\C/C=C\C/C=C\C/C=C\CCC(=O)O[C@H](COC(=O)CCCCCCC/C=C\C/C=C\CCCCC)COP(=O)([O-])OCC[N+](C)(C)C` [PC 18:2_22:6] (ion (formula + adduct): [C48H80NO8P+H] 1+) the “TIMS collisional cross section” value (sample type: Liver) was 292.5 Å².
With `CCCCC/C=C\C/C=C\C/C=C\C/C=C\CCCCCC(=O)OC[C@@H](COC(=O)CCCCCCCCCCCCCCC)OC(=O)CCCCCCC/C=C\CCCCCCCC` [TG 16:0_18:1_22:4] (ion (formula + adduct): [C59H104O6+NH4] 1+) the “TIMS collisional cross section” value (sample type: plasma) was 329.9 Å².
For `CCCCC/C=C\C/C=C\CCCCCCCCCCCC(=O)O[C@H](COC(=O)CCCCCCC/C=C\CCCCCCCC)COP(=O)(O)OCCN` [PE 18:1_22:2@] (ion (formula + adduct): [C45H84NO8P+H] 1+), the “TIMS collisional cross section” value (sample type: Liver) was 291.5 Å².
For `CCCCC/C=C\C/C=C\C/C=C\CCCCC(=O)O[C@H](COC(=O)CCCCCCCCCCCCCCC)COP(=O)([O-])OCC[N+](C)(C)C` [PC 16:0_18:3] (ion (formula + adduct): [C42H78NO8P+H] 1+), the “TIMS collisional cross section” value (sample type: Liver) was 282 Å² and the “TIMS collisional cross section” value (sample type: plasma) was 282 Å².
For `CCCCCCCC/C=C\CCCCCCCC(=O)OC[C@H](COC(=O)CCCCCCC/C=C\CCCCCCCCC)OC(=O)CCCCCCC/C=C\CCCCCCCC` [TG 18:1_18:1_19:1] (ion (formula + adduct): [C58H106O6+NH4] 1+), the “TIMS collisional cross section” value (sample type: HeLa) was 329.1 Å².
In the case of `CCCCC/C=C\C/C=C\C/C=C\C/C=C\CCCC(=O)O[C@H](COC(=O)CCCC/C=C\C/C=C\C/C=C\CCCCC)COP(=O)(O)OCCN` [PE 18:3_20:4@] (ion (formula + adduct): [C43H72NO8P+H] 1+), the “TIMS collisional cross section” value (sample type: HeLa) is reported as 273.8 Å² and the “TIMS collisional cross section” value (sample type: Liver) is reported as 273.7 Å².
With `CCCCCC/C=C\CCCCCCCC(=O)OC[C@@H](COC(=O)CCCCCCCCCCCCC)OC(=O)CCCCCCCCCCCCCC` [TG 14:0_15:0_16:1] (ion (formula + adduct): [C48H90O6+NH4] 1+) the “TIMS collisional cross section” value (sample type: HeLa) was 302.8 Å² and the “TIMS collisional cross section” value (sample type: plasma) was 302.85 ± 0.49 Å².
For `CCCCCCCCCCCCCCCCC(=O)OC[C@@H](COC(=O)CCCCCCCCCCCC)OC(=O)CCCCCCCCCCCCCCC` [TG 13:0_16:0_17:0] (ion (formula + adduct): [C49H94O6+NH4] 1+), the “TIMS collisional cross section” value (sample type: HeLa) was 308 Å².
